Data from publication PMC6511062, “Preclinical candidate for the treatment of visceral leishmaniasis that acts through proteasome inhibition” (Proceedings of the National Academy of Sciences of the …, 2019).

Legend:
bloodstream T. brucei = test: T. brucei stem-loop RNAi knock-down lines, drug sensitivity; assay type: cell-based, Trypanosoma brucei; conditions: for EC50: Trypanosoma brucei
Protocol: f. T. brucei RNAi constructs and cell lines
PCR primers (Table S6) were designed using RNAit28 to generate a 500-bp fragment conferring specific knockdown to Tb927.8.6620 (Table S7) and a 543-bp fragment of Tb927.9.15260 PCR fragments were cloned in the pRPaSLi construct for the generation of stem-loop dsRNA under the control of tetracycline as the trigger for RNAi28,29. Constructs were digested with AscI, EtOH-precipitated, and resuspended ([…]) in sterile water. 2T1 strains, containing a tetracycline repressor, were electroporated using program X-001 of the Nucleofector II electroporator (Amaxa, Cologne, Germany)30 following the addition of 5 µg of linearized DNA mixed in 100 µL of cytomix31. Transformants were cloned by limiting dilution under phleomycin (1 µg/mL) and hygromycin (2.5 µg/mL) selection. Puromycin susceptibility (1 µg/mL) was tested for full integration of the construct and expression of stem-loop RNAi was induced with concentrations of tetracycline ranging from […].
T. brucei RNA was isolated using an RNeasy purification kit (Qiagen) and cDNA-synthesized using a high capacity RNA-to-cDNA kit (Applied Biosystems). PCR primers (Table S6) were designed using the Premierbiosoft's Beacon Designer 6. qRT-PCRs […]
knock-down bloodstream trypanosomes. Transcript levels in trypanosomes where RNAi was induced by the addition of tetracycline (1 µg/mL, 24 h) were compared to wild-type (uninduced) levels. Relative levels of cDNA were normalized using the reference gene TERT (Tb927.11.10190, telomerase reverse transcriptase).
Compound 7, nM Compound 7, nM
Figure S4. Dose-response curves for compound 7 against cell lines where […]
(open circles) and induced (closed circles), respectively. […]
and 8.7 ± 0.3 nM for Tb927.8.6620RNAi uninduced (open circles) and induced (closed circles), respectively. Results are the means standard deviations of data from three […]

[1] = test system: Salmonella typhimurium TA1535, TA1537, TA98, TA100 and Escherichia coli WP2uvrA(pKM101); test: Bacterial mutation screening assay (Ames test), overall outcome; assay type: cell-based; conditions: presence and absence of S9-mix
Protocol: i. Bacterial Mutation (Ames) Assay
Compound 6 was tested in a bacterial mutation screening assay (Ames test) with Salmonella typhimurium TA1535, TA1537, TA98, TA100 and Escherichia coli WP2uvrA(pKM101) in the presence and absence of an exogenous mammalian oxidative metabolism system (S9-mix). The maximum concentration tested and […]
Compound 6a was tested in a bacterial mutation screening assay (Ames test) with […]
Compound 7a was tested in a bacterial mutation screening assay (Ames test) with […]
The bacterial mutation screening assay was a plate incorporation test carried out as previously described15 and according to current methodology. […]

[2] = test system: L. donovani axenic amastigotes; test: Axenic amastigote rate-of-kill assay; assay type: cell-based, Leishmania donovani
Protocol: T. cruzi4, Leishmania donovani axenic amastigote, cidal axenic amastigote and intra-macrophage drug sensitivity assays were conducted as previously described5,6.
The rate of kill of compound 8 was determined in axenic amastigotes using the previously described cidal axenic assay5, with one minor modification. Instead of a single readout at 72 h, multiple identical plates were used and read at different time points (24, 48, 72 h). Rate of kill curves showing the luminescence signal at each time point for each concentration were plotted.
5. Intrinsic clearance (CLint)
Test compound (0.5 µM) was incubated with female CD1 mouse liver microsomes (Xenotech LLC TM; 0.5 mg/mL 50 mM potassium phosphate buffer, pH7.4) and the reaction started with addition of excess NADPH (8 mg/mL 50 mM potassium phosphate buffer, pH7.4). Immediately, at time zero, then at 3, 6, 9, 15 and 30 minutes an aliquot (50 µL) of the incubation mixture was removed and mixed with acetonitrile (100 µL) to stop the reaction. […]
XLfit (idbs, UK) was used to calculate the exponential decay and consequently the rate constant (k) from the ratio of peak area of test compound to internal standard at each time-point. The rate of intrinsic clearance (CLint) of each test compound was then calculated using the following calculation: […]
Amastigote levels (as RLU, relative luminescence units) for each tested concentration plotted against time. […]

mouse lymphoma cells = test: Mouse lymphoma assay
Protocol: oxidative metabolism system (S9-mix). […]
The maximum […]
concentrations analysed were 410.45 µg/mL (1 mM, the maximum concentration in accordance with current guidelines and 100 µg/mL (limited by toxicity), for the 3 and […]
The mouse lymphoma screen was carried out using test methodology based on established procedures for in vitro gene mutation testing17,18,19,20. […]

Structure (SMILES) | EC50 (bloodstream T. brucei; Tb927.8.6620 RNAi induced) [nM] | EC50 (bloodstream T. brucei; Tb927.8.6620 RNAi uninduced) [nM] | EC50 (bloodstream T. brucei; Tb927.9.15260 RNAi induced) [nM] | EC50 (bloodstream T. brucei; Tb927.9.15260 RNAi uninduced) [nM] | resistance conferred by RNAi knockdown (bloodstream T. brucei; knockdown of Tb927.9.15260 and Tb927.8.6620) | AMES [1] | minimum concentration inducing parasite cell death ([2]; after 72 h) [nM] | time to kill ([2]; as compound concentrations were increased) [h] | MF (Mutation Frequency) (mouse lymphoma cells; 3 hour +S9 treatment, 375 µg/mL) | MF (Mutation Frequency) (mouse lymphoma cells; 3 hour +S9 treatment, 410.445 µg/mL) | mouse lymphoma screen result (mouse lymphoma cells; 3 hours with S9-mix and 24 hours without S9-mix) | MF (Mutation Frequency) (mouse lymphoma cells; 24 hour -S9 treatment, 40 µg/mL) | MF (Mutation Frequency) (mouse lymphoma cells; 24 hour -S9 treatment, 70 µg/mL) | MF (Mutation Frequency) (mouse lymphoma cells; 24 hour -S9 treatment, 100 µg/mL)
O=C(Nc1ccc(F)c(-c2cn3nc(-c4ccccc4)cnc3n2)c1)N1CCCC1 [Compound 7] | 8.7 ± 0.3 | 4.2 ± 0.2 | 8 ± 0.4 | 4.1 ± 0.2 | approximately twofold |  |  |  |  |  |  |  |  | 
O=C(Nc1ccc(F)c(-c2ccn3c(N4CCOCC4)cnc3n2)c1)N1CCCC1 [Compound 8] |  |  |  |  |  | negative | 620 | 48 | 191.25 ×10-6 | 222.38 ×10-6 | negative | 75.89 ×10-6 | 78.36 ×10-6 | 86.96 ×10-6
